Biological target: T1, GST-tagged-Wee1 kinase (Homo sapiens, UniProt P30291)
T1 construct: purchased Carnabio 05-177
Test: Wee1 time-resolved fluorescence equilibrium binding assay (displacement of Oregon Green-labeled ATP-competitive probe)
Settings: TR-FRET probe displacement; 2 nM GST-Wee1, 300 nM probe, 1 hour incubation; read-out: Wee-1 binding (Ki nM)
Protocol: Wee1 kinase was assayed using a time-resolved fluorescence equilibrium binding assay monitoring displacement of a rapidly reversible Oregon Green-labeled ATP-competitive kinase probe (N-(2-(2-(2-(4-(4-(5-chloro-4-(2-(1-hydroxycyclobutyl)thiazol-5-yl)-1H-pyrrolo[2,3-b]pyridin-2-yl)phenyl)piperazin-1-yl)ethoxy)ethoxy)ethyl)-2′,7′-difluoro-3′,6′-dihydroxy-3-oxo-3H-spiro[isobenzofuran-1,9′-xanthene]-5-carboxamide) by competitive Wee1 inhibitors.

T1 sequence (P30291 whole entry): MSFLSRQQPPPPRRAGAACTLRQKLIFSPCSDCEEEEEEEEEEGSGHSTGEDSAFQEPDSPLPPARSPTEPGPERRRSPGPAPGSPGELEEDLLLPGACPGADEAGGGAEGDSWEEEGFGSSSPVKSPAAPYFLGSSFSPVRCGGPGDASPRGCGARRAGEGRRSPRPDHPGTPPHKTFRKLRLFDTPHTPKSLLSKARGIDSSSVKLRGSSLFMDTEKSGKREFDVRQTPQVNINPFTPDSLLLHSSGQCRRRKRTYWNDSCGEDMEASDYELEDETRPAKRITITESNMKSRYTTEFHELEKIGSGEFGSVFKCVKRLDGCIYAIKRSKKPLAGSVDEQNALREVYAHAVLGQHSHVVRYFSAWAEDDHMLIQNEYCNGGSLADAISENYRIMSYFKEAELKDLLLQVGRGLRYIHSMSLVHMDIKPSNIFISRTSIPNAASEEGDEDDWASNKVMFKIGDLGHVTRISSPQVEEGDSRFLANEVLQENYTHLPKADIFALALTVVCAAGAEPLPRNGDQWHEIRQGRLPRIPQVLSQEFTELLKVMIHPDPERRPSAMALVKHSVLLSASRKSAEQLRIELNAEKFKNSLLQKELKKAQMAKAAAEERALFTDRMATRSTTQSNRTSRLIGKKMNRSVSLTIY

Row | SMILES | Ki [nM]
1 | CCCN1c2cc(C(=O)NCCO)ccc2-c2nc(Nc3ccc(N4CCN(C)CC4)cc3)ncc2S1(=O)=O [Example 84, N-(2-hydroxyethyl)-2-{[4-(4-methylpiperazin-1-yl)phenyl]amino}-6-propyl-6H-pyrimido[5,4-c][2,1]benzothiazine-8-carboxamide 5,5-dioxide] | 8
2 | CCCN1c2cc(C(=O)NCCOC)ccc2-c2nc(Nc3ccc(N4CCN(C)CC4)cc3)ncc2S1(=O)=O [Example 85, N-(2-methoxyethyl)-2-{[4-(4-methylpiperazin-1-yl)phenyl]amino}-6-propyl-6H-pyrimido[5,4-c][2,1]benzothiazine-8-carboxamide 5,5-dioxide] | 5
3 | CCCN1c2cc(C(=O)N[C@H]3CC[C@H](N)CC3)ccc2-c2nc(Nc3ccc(N4CCN(C)CC4)cc3)ncc2S1(=O)=O [Example 86, N-(trans-4-aminocyclohexyl)-2-{[4-(4-methylpiperazin-1-yl)phenyl]amino}-6-propyl-6H-pyrimido[5,4-c][2,1]benzothiazine-8-carboxamide 5,5-dioxide] | 4
4 | CCCN1c2cc(C(=O)NCc3cccnc3)ccc2-c2nc(Nc3ccc(N4CCN(C)CC4)cc3)ncc2S1(=O)=O [Example 87, 2-{[4-(4-methylpiperazin-1-yl)phenyl]amino}-6-propyl-N-(pyridin-3-ylmethyl)-6H-pyrimido[5,4-c][2,1]benzothiazine-8-carboxamide 5,5-dioxide] | 5
5 | COC(=O)c1ccc2c(c1)N(c1ccccc1)S(=O)(=O)c1cnc(Nc3ccc(N4CCN(C)CC4)cc3)nc1-2 [Example 88, methyl 2-{[4-(4-methylpiperazin-1-yl)phenyl]amino}-6-phenyl-6H-pyrimido[5,4-c][2,1]benzothiazine-8-carboxylate 5,5-dioxide] | 2
6 | COC(=O)c1ccc2c(c1)N(c1cccc(C)c1)S(=O)(=O)c1cnc(Nc3ccc(N4CCN(C)CC4)cc3)nc1-2 [Example 89, methyl 6-(3-methylphenyl)-2-{[4-(4-methylpiperazin-1-yl)phenyl]amino}-6H-pyrimido[5,4-c][2,1]benzothiazine-8-carboxylate 5,5-dioxide] | 63
7 | COC(=O)c1ccc2c(c1)N(c1cc(C(F)(F)F)cc(C(F)(F)F)c1)S(=O)(=O)c1cnc(Nc3ccc(N4CCN(C)CC4)cc3)nc1-2 [Example 91, methyl 6-[3,5-bis(trifluoromethyl)phenyl]-2-{[4-(4-methylpiperazin-1-yl)phenyl]amino}-6H-pyrimido[5,4-c][2,1]benzothiazine-8-carboxylate 5,5-dioxide] | 2700
8 | CCCN1c2cc(-n3ccnc3)ccc2-c2nc(Nc3ccc(N4CCN(C)CC4)cc3)ncc2S1(=O)=O [Example 92, 8-(1H-imidazol-1-yl)-N-[4-(4-methylpiperazin-1-yl)phenyl]-6-propyl-6H-pyrimido[5,4-c][2,1]benzothiazin-2-amine 5,5-dioxide] | 14
9 | CCCN1c2cc(-n3cccc3)ccc2-c2nc(Nc3ccc(N4CCN(C)CC4)cc3)ncc2S1(=O)=O [Example 93, N-[4-(4-methylpiperazin-1-yl)phenyl]-6-propyl-8-(1H-pyrrol-1-yl)-6H-pyrimido[5,4-c][2,1]benzothiazin-2-amine 5,5-dioxide] | 45
10 | CCCN1c2cc(-n3cncn3)ccc2-c2nc(Nc3ccc(N4CCN(C)CC4)cc3)ncc2S1(=O)=O [Example 94, N-[4-(4-methylpiperazin-1-yl)phenyl]-6-propyl-8-(1H-1,2,4-triazol-1-yl)-6H-pyrimido[5,4-c][2,1]benzothiazin-2-amine 5,5-dioxide] | 7
11 | COC(=O)c1ccc2c(c1)N(Cc1c(Cl)cccc1Cl)S(=O)(=O)c1cnc(Nc3ccc(N4CCN(C)CC4)cc3)nc1-2 [Example 95, methyl 6-(2,6-dichlorobenzyl)-2-{[4-(4-methylpiperazin-1-yl)phenyl]amino}-6H-pyrimido[5,4-c][2,1]benzothiazine-8-carboxylate 5,5-dioxide] | 591
12 | CCCN1c2ccc(Br)cc2-c2nc(Nc3ccc(N4CCN(C)CC4)cc3)ncc2S1(=O)=O [Example 96, 9-bromo-N-[4-(4-methylpiperazin-1-yl)phenyl]-6-propyl-6H-pyrimido[5,4-c][2,1]benzothiazin-2-amine 5,5-dioxide] | 2
13 | CCCN1c2ccc(-c3ccccc3)cc2-c2nc(Nc3ccc(N4CCN(C)CC4)cc3)ncc2S1(=O)=O [Example 97, N-[4-(4-methylpiperazin-1-yl)phenyl]-9-phenyl-6-propyl-6H-pyrimido[5,4-c][2,1]benzothiazin-2-amine 5,5-dioxide] | 6
14 | CCCN1c2ccc(-c3cccnc3)cc2-c2nc(Nc3ccc(N4CCN(C)CC4)cc3)ncc2S1(=O)=O [Example 98, N-[4-(4-methylpiperazin-1-yl)phenyl]-6-propyl-9-(pyridin-3-yl)-6H-pyrimido[5,4-c][2,1]benzothiazin-2-amine 5,5-dioxide] | 2.4
15 | CCCN1c2ccc(-c3ccncc3)cc2-c2nc(Nc3ccc(N4CCN(C)CC4)cc3)ncc2S1(=O)=O [Example 99, N-[4-(4-methylpiperazin-1-yl)phenyl]-6-propyl-9-(pyridin-4-yl)-6H-pyrimido[5,4-c][2,1]benzothiazin-2-amine 5,5-dioxide] | 3
16 | CCCN1c2ccc(-c3cccc(C(=O)NC)c3)cc2-c2nc(Nc3ccc(N4CCN(C)CC4)cc3)ncc2S1(=O)=O [Example 100, N-methyl-3-(2-{[4-(4-methylpiperazin-1-yl)phenyl]amino}-5,5-dioxido-6-propyl-6H-pyrimido[5,4-c][2,1]benzothiazin-9-yl)benzamide] | 4
17 | CCCN1c2ccc(-c3ccccc3CN(C)C)cc2-c2nc(Nc3ccc(N4CCN(C)CC4)cc3)ncc2S1(=O)=O [Example 101, 9-{2-[(dimethylamino)methyl]phenyl}-N-[4-(4-methylpiperazin-1-yl)phenyl]-6-propyl-6H-pyrimido[5,4-c][2,1]benzothiazin-2-amine 5,5-dioxide] | 7.6
18 | C=CCN1c2ncccc2-c2nc(Nc3ccc(N4CCN(C)CC4)cn3)ncc2S1(=O)=O [Example 102, N-[5-(4-methylpiperazin-1-yl)pyridin-2-yl]-6-(prop-2-en-1-yl)-6H-pyrido[2,3-c]pyrimido[4,5-e][1,2]thiazin-2-amine 5,5-dioxide] | 210
19 | C=CCN1c2ncccc2-c2nc(Nc3ccc(N4CCNCC4)cn3)ncc2S1(=O)=O [Example 103, N-[5-(piperazin-1-yl)pyridin-2-yl]-6-(prop-2-en-1-yl)-6H-pyrido[2,3-c]pyrimido[4,5-e][1,2]thiazin-2-amine 5,5-dioxide] | 110

Source: patent US8716297B2, “Chemical entities to be used for Wee1 inhibition for the treatment of cancer” (AbbVie Inc., priority 2011, dated 2014)
